# Data taken from US20050032882A1, “Botanical extract compositions and methods of use” (priority 2002, published 2005).
# pIC50: −log10 of the molar value.
# Legend:
# [1] = tested on: MCF-7 breast cancer cells; assay: MTT cell viability assay, MCF-7 breast cancer cells; assay type: cell-based; details: concentration giving 50% inhibition of cancer cell growth, 72 hours, linear interpolation
# Text: Cancer cell lines: LNCaP, DU-145, and MCF-7 cells were purchased from the American Type Culture Collection. […] Cells were maintained in RPMI 1640 culture media supplemented with 10% heat-inactivated FBS, 5 millimolar glutamine, 50 units/milliliter of penicillin G, and 50 […] of streptomycin. The cells were routinely seeded at 1×10^5 cells/milliliter in T-75 flasks, allowed to attach overnight, then treated with the herbal extract. At different times, cells were harvested by trypsinization. […] The assay reagents were purchased from Boehringer Mannheim (Roche Diagnosis Corp, Indianapolis, Ind.). […] The protocol for the cell viability assay was provided by the manufacturer and modified in our laboratory as described below. CSO-0001-P […] After 24 hours, 20 microliter aliquots of the compounds at various concentrations were added to the attached cells. […] The plates were incubated at 37° C. in a CO2 incubator for 72 hours. […] The plate was allowed to stand overnight in the CO2 incubator and read by an ELISA Reader (EL800, Bio-Tek Instruments, Inc.) at a wavelength of 570 nm. The percent cell viability was calculated according to the equation below: [formula] where V is the percent cell viability, Acontrol is the absorption of the control cells, and Atreated is the absorption of the treated cells. […]
# LNCaP cells = assay: LNCaP cell cycle by DNA content flow cytometry; assay type: cell-based; details: LNCaP cells exposed 24-48 hours, DAPI DNA content flow cytometry
# Protocol: The cells were washed with phosphate buffered saline (PBS) and fixed in ice-cold 70% ethanol. […] ([…]. Juan, […]. Chen, F. Traganos and Z. Darzynkiewicz, “Apoptosis and Cell Cycle Effects Induced by Extracts of the Chinese Herbal Preparation of PC SPES”, International J. of Oncology (1997), 11: 437-448). The cellular DNA content was measured with an ELITE ESP flow cytometer (Coulter Inc., Fl.) using UV laser illumination. The multicycle program was used to deconvolute the DNA frequency histograms to estimate the frequency of cells in different phases of the cell cycle. […] Similar measurements were conducted for isoliquiritigenin.
# COX-2 = target: T1, COX-2 (Ovis aries, UniProt P79208); assay: ovine COX-2 Inhibitor Screening Assay (Cayman, prostaglandin immunoassay); assay type: biochemical; details: ovine COX-2, arachidonic acid substrate; read-out: IC50 COX-2 inhibition
# T1 construct: purchased Cayman Chemical 760101
# T1 sequence (P79208 17-603): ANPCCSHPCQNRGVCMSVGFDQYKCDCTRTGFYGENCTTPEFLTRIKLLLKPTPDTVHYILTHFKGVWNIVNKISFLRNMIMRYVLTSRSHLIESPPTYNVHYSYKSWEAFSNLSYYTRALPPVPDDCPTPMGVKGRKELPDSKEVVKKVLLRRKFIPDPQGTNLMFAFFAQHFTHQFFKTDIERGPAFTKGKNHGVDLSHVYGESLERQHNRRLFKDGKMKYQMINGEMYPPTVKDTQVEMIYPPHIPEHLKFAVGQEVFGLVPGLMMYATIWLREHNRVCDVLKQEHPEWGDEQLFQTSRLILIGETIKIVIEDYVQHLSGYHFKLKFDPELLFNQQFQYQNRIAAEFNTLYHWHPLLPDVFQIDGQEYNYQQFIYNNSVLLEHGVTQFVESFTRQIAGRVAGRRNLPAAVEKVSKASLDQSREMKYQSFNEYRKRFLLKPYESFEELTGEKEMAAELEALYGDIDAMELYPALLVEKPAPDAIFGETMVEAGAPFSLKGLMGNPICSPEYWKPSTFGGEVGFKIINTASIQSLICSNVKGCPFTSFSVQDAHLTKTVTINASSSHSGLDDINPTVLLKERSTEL
# Protocol: This immunoassay uses an antibody to that binds all major prostaglandins to measure quantitatively the amount of PGF2α produced in the COX reaction using arachidonic acid as a substrate. The final volume of the reactions as described below is typically 1.15 ml. In brief, COX-1 or COX-2 (e.g., 20 μl of a solution of from 1 to 100 units/ml COX, where a unit is defined as the amount of enzyme that consumes one nanomole of oxygen per minute at 37° C. in 0.1 M Tris-HCl buffer, pH 8.0 containing 100 μM arachidonate, 5 mM EDTA, 2 mM phenol and 1 μM hematin) is first mixed with a buffer (e.g., 0.1 M Tris, pH 8.0, 5 mM EDTA, 2 mM phenol) and heme (e.g., 10 μl of 10 mM heme) in a microfuge tube. The heme is a cofactor for COX that provides maximal activity in the assay. […] The prostaglandin produced in the reactions is typically quantified using an enzyme immunoassay.
# The enzyme immunoassay to detect prostaglandin can conveniently be performed in a 96 well plate using an antibody to detect prostaglandin. As controls, prostaglandin standards and COX 100% activity samples (no inhibitor) can be measured. […] When ready to develop the plate, the reactions are first washed and then incubated with 200 μl of Ellman's reagent for 60 minutes or so. The plate can be read at 405 to 420 nm on a plate reader. […]
# [2] = tested on: DU-145 (androgen-independent) prostate cancer cells; assay: MTT cell viability assay, DU-145 prostate cancer cells; assay type: cell-based; details: concentration giving 50% inhibition of cancer cell growth, 72 hours, linear interpolation
# Text: (§1) Cancer cell lines: LNCaP, DU-145, and MCF-7 cells were purchased from the American Type Culture Collection. […] Cells were maintained in RPMI 1640 culture media supplemented with 10% heat-inactivated FBS, 5 millimolar glutamine, 50 units/milliliter of penicillin G, and 50 […] of streptomycin. The cells were routinely seeded at 1×10^5 cells/milliliter in T-75 flasks, allowed to attach overnight, then treated with the herbal extract. At different times, cells were harvested by trypsinization. […] The assay reagents were purchased from Boehringer Mannheim (Roche Diagnosis Corp, Indianapolis, Ind.). […] The protocol for the cell viability assay was provided by the manufacturer and modified in our laboratory as described below. […] After 24 hours, 20 microliter aliquots of the compounds at various concentrations were added to the attached cells. […] The plates were incubated at 37° C. in a CO2 incubator for 72 hours. At the end of day 3 (after 72 hours), the culture medium was carefully removed without disturbing the cells and replaced by 100 microliters of fresh cell medium.
# [3] = tested on: PTX 10 (taxol resistant ovarian cancer cell line); assay: MTT cell viability assay, PTX 10 taxol-resistant ovarian cancer cells; assay type: cell-based; details: protocol as Example 1
# Text: Cancer cell lines: LNCaP, DU-145, and MCF-7 cells were purchased from the American Type Culture Collection. PTX 10, a taxol-resistant ovarian cancer cell line, was obtained from the Brander Cancer Research Laboratory, New York Medical College. Cells were maintained in RPMI 1640 culture media supplemented with 10% heat-inactivated FBS, 5 millimolar glutamine, 50 units/milliliter of penicillin G, and 50 […] of streptomycin. The cells were routinely seeded at 1×10^5 cells/milliliter in T-75 flasks, allowed to attach overnight, then treated with the herbal extract. At different times, cells were harvested by trypsinization.
# The assay reagents were purchased from Boehringer Mannheim (Roche Diagnosis Corp, Indianapolis, Ind.). […] The protocol for the cell viability assay was provided by the manufacturer and modified in our laboratory as described below.
# After 24 hours, 20 microliter aliquots of the compounds at various concentrations were added to the attached cells. […] The plates were incubated at 37° C. in a CO2 incubator for 72 hours. At the end of day 3 (after 72 hours), the culture medium was carefully removed without disturbing the cells and replaced by 100 microliters of fresh cell medium.
# [4] = tested on: LNCaP (androgen-dependent) prostate cancer cells; assay: MTT cell viability assay, LNCaP prostate cancer cells; assay type: cell-based; details: concentration giving 50% inhibition of cancer cell growth, 72 hours, linear interpolation
# Text: as §1
# DU-145 cells = assay: DU-145 cell cycle by DNA content flow cytometry; assay type: cell-based; details: protocol of Example 3
# Protocol: The cells were washed with phosphate buffered saline (PBS) and fixed in ice-cold 70% ethanol. […] ([…]. Juan, […]. Chen, F. Traganos and Z. Darzynkiewicz, “Apoptosis and Cell Cycle Effects Induced by Extracts of the Chinese Herbal Preparation of PC SPES”, International J. of Oncology (1997), 11: 437-448). The cellular DNA content was measured with an ELITE ESP flow cytometer (Coulter Inc., Fl.) using UV laser illumination. The multicycle program was used to deconvolute the DNA frequency histograms to estimate the frequency of cells in different phases of the cell cycle.
Structure (SMILES),"ED50 from MTT assay, MCF7 [1] [µg/mL]","effect on LNCaP cell cycle phases (G1, S, G2M) (LNCaP cells)",pIC50 (COX-2),"ED50 from MTT assay, DU145 [2] [µg/mL]",ED50 PTX 10 (taxol resistant ovarian cancer cell) [3] [µg/mL],"ED50 from MTT assay, LNCaP [4] [µg/mL]",effect on DU-145 cell cycle phases (DU-145 cells)
"O=C(/C=C/c1ccc(O)cc1)c1ccc(O)cc1O [Isoliquiritigenin, 2′,4,4′-trihydroxychalcone]",3.25,induced a G2M phase arrest,4.98,7.60,3.32,3.51,–
"COc1c(O)cc(O)c2c(=O)cc(-c3ccccc3)oc12 [Wogonin, 5,7-dihydroxy-8-methoxy-flavone]",–,induced a G1 phase arrest,–,–,–,–,prolonged the G2M phase
